According to patent publication US9303017B2, “2,5-disubstituted-pyridyl nicotinic ligands, and methods of use thereof” (Georgetown University, priority 2011, dated 2016):
pEC50, pIC50, pKi: −log10 of the molar value. Counter-ions that a name gives are not always drawn. Like-named read-outs stand apart in the source and are kept apart here.

Experiments:
α3β4 nAChR = α3β4 nAChR (Rattus norvegicus (Rat), UniProt P04757+P12392); assay: [3H]-epibatidine competition binding, α3β4
Method: (§1) In Vitro Binding Affinities for nAChR Subtypes. […] To determine selectivities of these compounds in binding assays among the three predominant nAChR subtypes, α3β4, α4β2 and α7, the ratios of Ki values (α3β4/α4β2 and α7/α4β2) were determined.
(§2) Cell Lines and Cell Culture. The cell lines expressing defined rat nAChR subtypes were established previously by stably transfecting HEK 293 cells with rat nAChR subunit genes. The cell line expressing human α4β2 nAChRs, YXα4β2H1, was established recently. These cell lines were maintained in minimum essential medium (MEM) supplemented with 10% fetal bovine serum, 100 units/mL penicillin G, […] and selective antibiotics at 37° C. with 5% CO2 in a humidified incubator. Fetal bovine serum was provided by Gemini Bio-Products (Woodland, Calif.). Tissue culture medium and antibiotics were obtained from Invitrogen Corporation (Carlsbad, Calif.), unless otherwise stated.
(§3) Briefly, cultured cells at >80% confluence were removed from their flasks (80 cm^2) with a disposable cell scraper and placed in 10 mL of 50 mM Tris.HCl buffer (pH 7.4, 4° C.). The cell suspension was centrifuged at 10,000×g for 5 min and the pellet was collected. The cell pellet was then homogenized in 10 mL buffer with a polytron homogenizer and centrifuged at 36,000 g for 10 min at 4° C. The membrane pellet was resuspended in fresh buffer, and aliquots of the membrane preparation were used for binding assays. […] Bound and free ligands were separated by vacuum filtration through Whatman GF/C filters treated with 0.5% polyethylenimine. The filter-retained radioactivity was measured by liquid scintillation counting. Specific binding was defined as the difference between total binding and nonspecific binding. Data from competition binding assays were analyzed using Prism 5 (GraphPad Software, San Diego, Calif.).
(§4) Pharmacological Properties. We measured the in vitro binding affinities of the ligands for defined receptor subtypes (α2β2, α2β4, α3β2, α3β4, α4β2, α4β4, α6β2, α6β4, and α7) expressed in stably transfected cell lines. […] Rat forebrain homogenates were included to allow comparison between the heterologous and native α4β2 and α7 nAChRs. See Table 1 for binding affinity values (Ki) of the ligands at the three major nAChR subtypes (α3β4. α4β2 and α7).

α4β2 nAChR = α4β2 nAChR (Rattus norvegicus (Rat), UniProt P09483+P12390); assay: biochemical; format: binding; details: for Ki Ratio α3β4/α4β2: selectivity for α4β2 over α3β4; for Ki Ratio α7/α4β2: selectivity for α4β2 over α7
Method: as §1, §2, §3, §4

α7 nAChR = α7 nAChR (Rattus norvegicus (Rat), UniProt Q05941); format: binding
Method: as §1, §2, §3, §4

human α4β2 nAChRs = human α4β2 nAChRs (Homo sapiens (Human), UniProt P17787+P43681); assay: 86Rb+ efflux assay (activation and desensitization), α4β2; format: cell-based; details: for pIC50: desensitization; for pEC50: agonist activity; for Emax: read-out: Emax α4β2 nAChRs
Method: (§5) In Vitro Effects on nAChR Function. […] Their agonist activities were assessed by measuring stimulated ^86Rb^+ efflux from stably transfected cells, either expressing human α4β2 nAChRs or rat α3β4 receptors.
as §2
(§6) ^86Rb^+ Efflux Assay. Functional properties of compounds at nAChRs expressed in the transfected cells were measured using ^86Rb^+ efflux assays as described previously. In brief, cells expressing human α4β2 or rat α3β4 nAChRs were plated into 24-well plates coated with poly-D-lysine. The plated cells were grown at 37° C. for 18 to 24 hour to reach 85-95% confluence. The cells were then incubated in growth medium (0.5 mL/well) containing ^86Rb^+ (2 μCi/mL) for 4 hour at 37° C. The loading mixture was then aspirated, and the cells were washed four times with 1 mL buffer (15 mM HEPES, 140 mM NaCl, 2 mM KCl, 1 mM MgSO4, 1.8 mM CaCl2, 11 mM Glucose, pH 7.4). One mL of buffer with or without compounds to be tested was then added to each well. After incubation for 2 min, the assay buffer was collected for measurements of ^86Rb^+ released from the cells. Cells were then lysed by adding 1 mL of 100 mM NaOH to each well, and the lysate was collected for determination of the amount of ^86Rb^+ that was in the cells at the end of the efflux assay. Radioactivity of assay samples and lysates was measured by liquid scintillation counting. Total loading (cpm) was calculated as the sum of the assay sample and the lysate of each well. The amount of ^86Rb^+ efflux was expressed as a percentage of ^86Rb^+ loaded. […] For obtaining EC50 and Emax values, stimulation curves were constructed in which 8 different concentrations of a ligand were included in the assay. […] EC50, Emax and IC50(10′) values were determined by nonlinear least-squares regression analyses (GraphPad, San Diego, Calif.).
(§7) The functional properties of the ligands were determined by ^86Rb^+ efflux assays in cells expressing α3β4 and α4β2 nAChR subtypes. The functional activity of each ligand was measured for its agonism, antagonism and desensitization ability. Agonist activity for each of the ligands was tested at eight different concentrations. […] The full concentration-effect curves generated potency (EC50) and efficacy (Emax) of each ligand. […] We tested each ligand for antagonist activity at eight concentrations. The potency (IC50(0′)) of each ligand as an antagonist was derived from the full concentration-effect curves.

rat α3β4 nAChRs = rat α3β4 nAChRs (Rattus norvegicus (Rat), UniProt P04757+P12392); assay: 86Rb+ efflux assay (activation and desensitization), α3β4; format: cell-based; details: for Emax: read-out: Emax α3β4 nAChRs
Method: as §5, §2, §6, §7

α2β2 nAChR = α2β2 nAChR (Rattus norvegicus (Rat), UniProt P12389+P12390); assay: [3H]-epibatidine competition binding, α2β2; details: Table 1; mean of 3 to 5 measurements
Method: as §1
as §2, with “Tissue culture medium and antibiotics were obtained from Invitrogen Corporation (Carlsbad, Calif.), unless otherwise stated.” left out
(§8) Briefly, cultured cells at >80% confluence were removed from their flasks (80 cm^2) with a disposable cell scraper and placed in 10 mL of 50 mM Tris.HCl buffer (pH 7.4, 4° C.). […] The filter-retained radioactivity was measured by liquid scintillation counting. […] Data from competition binding assays were analyzed using Prism 5 (GraphPad Software, San Diego, Calif.).
(§9) Pharmacological Properties. We measured the in vitro binding affinities of the ligands for defined receptor subtypes (α2β2, α2β4, α3β2, α3β4, α4β2, α4β4, α6β2, α6β4, and α7) expressed in stably transfected cell lines. […]

α2β4 nAChR = α2β4 nAChR (Rattus norvegicus (Rat), UniProt P12389+P12392); assay: [3H]-epibatidine competition binding, α2β4; details: Table 1; mean of 3 to 5 measurements
Method: as §1
as §2, with “Tissue culture medium and antibiotics were obtained from Invitrogen Corporation (Carlsbad, Calif.), unless otherwise stated.” left out
as §8, §9

α3β2 nAChR = α3β2 nAChR (Rattus norvegicus (Rat), UniProt P04757+P12390); assay: [3H]-epibatidine competition binding, α3β2; details: Table 1; mean of 3 to 5 measurements
Method: as §1
as §2, with “Tissue culture medium and antibiotics were obtained from Invitrogen Corporation (Carlsbad, Calif.), unless otherwise stated.” left out
as §8, §9

α4β4 nAChR = α4β4 nAChR (Rattus norvegicus (Rat), UniProt P09483+P12392); assay: [3H]-epibatidine competition binding, α4β4; details: Table 1; mean of 3 to 5 measurements
Method: as §1
as §2, with “Tissue culture medium and antibiotics were obtained from Invitrogen Corporation (Carlsbad, Calif.), unless otherwise stated.” left out
as §8, §9

ferrets = assay: Emesis studies in ferrets; format: in vivo, ferret (Mustela putorius furo); details: 0.5 mg/kg s.c.
Method: Emetic Effects of Compound (S)-15 (YL-1-127) in Ferrets. Effects of (S)-15 in causing nausea and emesis were assessed in a ferret model. For comparison, varenicline was also tested. […] In general, all animals remained alert and active with periods of inactivity that mirrored their baseline behavior within the 1 hr observation period.
In one animal, this behavior was accompanied by oral stereotypy (licking), whereas in two animals it was interspersed by episodes of backward walking. On the average, these behaviors manifested around ˜2.20 min. […] Occasionally, when animals tried to ambulate they would immediately cease their movement after each attempt. This would be followed by a momentary increase in breathing, giving the impression that the animal was in distress.
General Procedures for Emesis Studies in Ferrets. Studies were undertaken in male ferrets (Mustela putorius furo) weighing 0.9-1.5 kg (Marshall Farms, N.Y.). They were housed in controlled conditions of room temperature (22° C.) and light (12:12 h light-dark cycle) with free access to food and water. Prior to each experiment, food was withheld overnight, whereas water was provided ad libitum.
Emetic testing consisted of placing animals individually in a polycarbonate enclosure. Following a 30 min acclimation period, each animal randomly received a subcutaneus injection of varencline or compound (S)-15 (YL-1-127) in the subscapular region. A 60 min observation and video recording followed the drug administration. […] All drugs were dissolved in sterile saline.
Video analysis of the incidence of emesis, stereotypical behaviors (such as licking, mouth-clawing, backward walking, gagging, and burying of the head in cage) and GI side effects (diarrhea) was done off-line. Stereotypical behaviors are thought to be reflective of a subjective sensation of nausea. The emetic index of a drug was calculated as the […] of animals displaying emesis (one or more times in 60 min) divided by the total number of animals tested. An emetic episode was defined as the forceful oral expulsion of liquid or solid upper gastrointestinal contents that is temporally separated from another by at least 30 s.
The Nausea Index for the stereotypical behaviors was derived from the mean±SEM number of nausea behaviors observed among all animals in a given treatment group. Significance was determined at p<0.05.

[1] = Table 1, mean of 3 to 5 measurements
[2] = Table 1, mean of 3 to 5 measurements, read-out: Ki α4β2
[3] = Table 3 (Example 4), read-out: Ki α4β2
[4] = agonist efficacy normalized to Emax of nicotine, ND = no significant stimulated efflux detected
[5] = 10 min pre-incubation before 100 μM nicotine, Table 2, read-out: IC50(10′) α4β2 nAChRs
[6] = read-out: IC50(10′) α3β4 nAChRs
[7] = ND = no significant stimulated efflux detected
[8] = 10 min pre-treatment, Table 3 (Example 4), read-out: IC50(10′) α4β2

Structure (SMILES)	pKi (α3β4 nAChR; [1])	pKi (α4β2 nAChR; [2])	Ki Ratio α3β4/α4β2 (α4β2 nAChR)	Ki Ratio α7/α4β2 (α4β2 nAChR)	pKi (α7 nAChR; [1])	pKi (α7 nAChR; Table 3 (Example 4))	pKi (α3β4 nAChR; Table 3 (Example 4))	pKi (α4β2 nAChR; [3])	pIC50 (human α4β2 nAChRs; [5])	pIC50 (rat α3β4 nAChRs; [6])	pEC50 (human α4β2 nAChRs; [7])	Emax (human α4β2 nAChRs; [4])	pIC50 (human α4β2 nAChRs; [8])	pIC50 (rat α3β4 nAChRs; read-out: IC50(10′) α3β4)	further results
CCCCC#Cc1cnc(C)c(OC[C@H]2CCN2)c1 [(R)-15, (R)-3-(azetidin-2-ylmethoxy)-5-(hex-1-ynyl)-2-methylpyridine]	3.70	6.13	270	220	3.80	3.92	–	–	–	–	–	–	–	–	–
CCCCC#Cc1cnc(C)c(OC[C@H]2CCCN2)c1 [(R)-16, (R)-5-(hex-1-ynyl)-2-methyl-3-(pyrrolidin-2-ylmethoxy) pyridine]	–	–	22	11	3.96	–	4.66	5.00	–	–	–	–	–	–	–
CCCCC#Cc1cnc(C)c(OC[C@@H]2CCCN2)c1 [(S)-16, (S)-5-(hex-1-ynyl)-2-methyl-3-(pyrrolidin-2-ylmethoxy)pyridine]	–	–	–	–	–	4.09	4.03	7.14	5.80	5.19	–	–	–	–	Emax α4β2 nAChRs (human α4β2 nAChRs; [4]): didn't show detectable agonist activity
Cc1ncc(C#CCCCCO)cc1OC[C@@H]1CCN1 [(S)-17, (S)-6-(5-(azetidin-2-ylmethoxy)-6-methylpyridin-3-yl)hex-5-yn-1-ol]	–	8.37	70,000	40,000	–	3.77	3.60	–	7.29	< 5.00	7.20	< 20%	7.38	4.30	reduction in binding affinity for α4β2 nAChRs (α4β2 nAChR; relative to Sazetidine-A): 70 fold
Cc1ncc(C#CCCCCF)cc1OC[C@@H]1CCN1 [(S)-22, (S)-3-(azetidin-2-ylmethoxy)-5-(6-fluorohex-1-ynyl)-2-methylpyridine]	3.82	–	–	–	3.82	3.82	3.89	–	6.89	< 5.00	–	–	6.85	4.89	pKi (α2β2 nAChR): 8.06; pKi (α2β4 nAChR): 4.62; pKi (α3β2 nAChR): 6.64; pKi (α4β4 nAChR): 5.52; Emax α4β2 nAChRs (human α4β2 nAChRs; [4]): didn't show detectable agonist activity
Cc1ncc(C#CC2CC2)cc1OC[C@@H]1CCN1 [(S)-27, (S)-3-(azetidin-2-ylmethoxy)-5-(cyclopropylethynyl)-2-methylpyridine]	3.82	8.02	16,000	16,000	–	3.82	3.82	–	6.96	< 5.00	6.80	< 20%	7.96	4.44	–
CN1CCC[C@H]1c1cccnc1 [(—)-Nicotine, (−)-nicotine, reference compound]	–	–	–	–	–	–	–	–	–	–	–	–	–	–	Emax (human α4β2 nAChRs): 100%; Emax α3β4 nAChRs (rat α3β4 nAChRs): full agonist activities
OCCCCC#Cc1cncc(OC[C@@H]2CCN2)c1 [Sazetidine-A, reference compound]	–	–	31,000	11,000	–	5.80	5.72	10.21	7.92	< 5.00	7.62	40%	8.12	–	pEC50 (rat α3β4 nAChRs; agonist activity, ND = no significant stimulated efflux detected): 4.62; pIC50 (rat α3β4 nAChRs; desensitization, 10 min pre-treatment, Table 3 (Example 4), read-out: IC50(10′) α3β4): < 5.00; Emax (rat α3β4 nAChRs): 17%
c1cnc2cc3c(cc2n1)[C@@H]1CNC[C@H]3C1 [Varenicline]	–	–	–	–	–	–	–	–	–	–	–	–	–	–	Emax (rat α3β4 nAChRs): 90%; gagging (retching), mean # of episodes (ferrets): 2.80 ± 1.63; time post-injection at which locomotor behavior was noticeably reduced (ferrets): ~1.05 min; emetic episodes (ferrets; 1 hr observation): no emetic episodes were observed; time at which nausea behaviors manifested (ferrets; average): ~2.20 min; animals with drug induced nausea (gagging) (ferrets; animals affected/tested): 4/5
CCCCC#Cc1cnc(C(F)(F)F)c(OC[C@@H]2CCN2)c1 [compound 32, (S)-3-(azetidin-2-ylmethoxy)-5-(hex-1-ynyl)-2-(trifluoromethyl)pyridine hydrochloride]	< 4.00	–	–	–	–	–	–	–	–	–	–	–	–	–	pKi (α4β2 nAChR): < 4.00
